# Measured values as given in patent US11524966B1 (Valo Early Discovery, Inc., priority 2017, dated 2022).
# Target: T1, USP28 (USP28-5(1-1077)-TEV-6*His; LifeSensors) (Homo sapiens, UniProt Q96RU2)
# T1 construct: construct USP28 (USP28-5(1-1077)-TEV-6*His; LifeSensors); TEV cleavage site (C); 6xHis (C); purchased LifeSensors
# T1 sequence (Q96RU2 1-1077): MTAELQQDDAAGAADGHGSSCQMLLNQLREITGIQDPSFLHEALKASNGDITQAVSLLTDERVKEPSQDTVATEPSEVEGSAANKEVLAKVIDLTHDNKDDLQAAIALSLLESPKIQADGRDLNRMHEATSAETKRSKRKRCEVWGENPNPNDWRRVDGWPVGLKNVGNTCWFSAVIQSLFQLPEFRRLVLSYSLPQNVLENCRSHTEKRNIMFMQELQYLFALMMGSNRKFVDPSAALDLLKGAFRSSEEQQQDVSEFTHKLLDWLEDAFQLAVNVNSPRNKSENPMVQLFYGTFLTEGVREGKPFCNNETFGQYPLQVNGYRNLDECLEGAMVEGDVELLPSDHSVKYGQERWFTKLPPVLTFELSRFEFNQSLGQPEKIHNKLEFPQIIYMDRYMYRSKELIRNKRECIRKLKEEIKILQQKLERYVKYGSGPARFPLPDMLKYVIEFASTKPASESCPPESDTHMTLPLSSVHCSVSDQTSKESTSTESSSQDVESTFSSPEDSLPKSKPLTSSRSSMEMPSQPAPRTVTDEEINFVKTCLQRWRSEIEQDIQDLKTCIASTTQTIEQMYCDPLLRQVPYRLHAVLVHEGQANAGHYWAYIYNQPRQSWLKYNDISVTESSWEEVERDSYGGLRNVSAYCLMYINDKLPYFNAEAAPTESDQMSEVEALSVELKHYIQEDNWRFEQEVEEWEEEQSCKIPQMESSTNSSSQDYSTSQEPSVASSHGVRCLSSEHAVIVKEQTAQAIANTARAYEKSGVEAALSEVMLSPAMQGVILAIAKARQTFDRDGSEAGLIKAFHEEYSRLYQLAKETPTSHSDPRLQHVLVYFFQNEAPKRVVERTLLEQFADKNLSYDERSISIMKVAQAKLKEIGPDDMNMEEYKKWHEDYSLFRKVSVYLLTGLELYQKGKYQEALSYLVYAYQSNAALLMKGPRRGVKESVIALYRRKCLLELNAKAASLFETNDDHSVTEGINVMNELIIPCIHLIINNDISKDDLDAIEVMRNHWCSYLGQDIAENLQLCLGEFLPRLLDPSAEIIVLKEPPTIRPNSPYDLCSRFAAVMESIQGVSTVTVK
# Assay: Ubiquitin-Rhodamine 110 Assay for USP28 Activity, Example A-1(b)
# Assay type: biochemical
# Conditions: Ub-Rh110 assay, Example A-1(b)
# Method in brief: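 Single-point screening used 10 μM compound with 90 min room-temperature incubation; follow-up dose-responses (25 μM top, 3-fold) used 75 pM USP28 1-1077 construct, 30 min compound preincubation, 25 nM Ub-Rh110, 20 min reaction, citric acid quench. Rh110 fluorescence normalised to no-enzyme and DMSO controls; IC50 from 4-parameter logistic fit.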
row,Structure (SMILES),USP28 A-1(b) IC50 range
1,"Cc1ccc2c(N)c(C(=O)N[C@H]3COc4cc(N5CCNCC5)ccc4C3)sc2n1 (single isomer, unassigned) [Example 1-1]",+++ (0.05-0.2 μM)
2,"Cc1ccc2c(N)c(C(=O)N[C@@H]3COc4cc(N5CCNCC5)ccc4C3)sc2n1 (single isomer, unassigned) [Example 1-2]",+ (>2 μM)
3,"Cc1ccc2c(N)c(C(=O)N[C@H]3COc4cc(N5CC6CCC(C5)N6)ccc4C3)sc2n1 (single isomer, unassigned) [Example 1-3]",+++ (0.05-0.2 μM)
4,"Cc1ccc2c(N)c(C(=O)N[C@@H]3COc4cc(N5CC6CCC(C5)N6)ccc4C3)sc2n1 (single isomer, unassigned) [Example 1-4]",++ (0.2-2 μM)
5,"Cc1ccc2c(N)c(C(=O)N[C@H]3COc4cc(N5CC6CCCC(C5)N6)ccc4C3)sc2n1 (single isomer, unassigned) [Example 1-5]",++++ (0.001-0.05 μM)
6,"Cc1ccc2c(N)c(C(=O)N[C@@H]3COc4cc(N5CC6CCCC(C5)N6)ccc4C3)sc2n1 (single isomer, unassigned) [Example 1-6]",++ (0.2-2 μM)
7,"Cc1ccc2c(N)c(C(=O)N[C@H]3COc4cc(N5CCN[C@H](C)[C@@H]5C)ccc4C3)sc2n1 (single isomer, unassigned) [Example 1-9]",++ (0.2-2 μM)
8,"Cc1ccc2c(N)c(C(=O)N[C@@H]3COc4cc(N5CCN[C@H](C)[C@@H]5C)ccc4C3)sc2n1 (single isomer, unassigned) [Example 1-10]",++ (0.2-2 μM)
9,"Cc1ccc2c(N)c(C(=O)N[C@H]3COc4cc(N5CCN[C@H](C)[C@H]5C)ccc4C3)sc2n1 (single isomer, unassigned) [Example 1-11]",++++ (0.001-0.05 μM)
10,"Cc1ccc2c(N)c(C(=O)N[C@@H]3COc4cc(N5CCN[C@H](C)[C@H]5C)ccc4C3)sc2n1 (single isomer, unassigned) [Example 1-12]",++++ (0.001-0.05 μM)
11,"Cc1ccc2c(N)c(C(=O)N[C@H]3COc4cc(N5CCN[C@@H](C)[C@@H]5C)ccc4C3)sc2n1 (single isomer, unassigned) [Example 1-13]",++ (0.2-2 μM)
12,"Cc1ccc2c(N)c(C(=O)N[C@@H]3COc4cc(N5CCN[C@@H](C)[C@@H]5C)ccc4C3)sc2n1 (single isomer, unassigned) [Example 1-14]",++ (0.2-2 μM)
13,"Cc1nc2sc(C(=O)N[C@H]3COc4cc(N5CCNCC5)ccc4C3)c(N)c2cc1F (single isomer, unassigned) [Example 1-15]",+++ (0.05-0.2 μM)
14,"Cc1nc2sc(C(=O)N[C@@H]3COc4cc(N5CCNCC5)ccc4C3)c(N)c2cc1F (single isomer, unassigned) [Example 1-16]",+ (>2 μM)
15,"Nc1c(C(=O)N[C@H]2COc3cc(N4CC5CCC(C4)N5)ccc3C2)sc2ncc(F)cc12 (single isomer, unassigned) [Example 1-17]",++ (0.2-2 μM)
16,"Nc1c(C(=O)N[C@@H]2COc3cc(N4CC5CCC(C4)N5)ccc3C2)sc2ncc(F)cc12 (single isomer, unassigned) [Example 1-18]",+ (>2 μM)
17,"Cc1cnc2c(N)c(C(=O)N[C@H]3COc4cc(N5CCNCC5)ccc4C3)sc2n1 (single isomer, unassigned) [Example 1-21]",++ (0.2-2 μM)
18,"Cc1cnc2c(N)c(C(=O)N[C@@H]3COc4cc(N5CCNCC5)ccc4C3)sc2n1 (single isomer, unassigned) [Example 1-22]",+ (>2 μM)
19,"CCn1ccc2cc(C(=O)N[C@@H]3COc4cc(N5CC6CCC(C5)N6)ccc4C3)cnc21 (single isomer, unassigned) [Example 1-27]",+ (>2 μM)
20,"CCn1ccc2cc(C(=O)N[C@H]3COc4cc(N5CC6CCC(C5)N6)ccc4C3)cnc21 (single isomer, unassigned) [Example 1-28]",+++ (0.05-0.2 μM)

row,Structure (SMILES),USP28 A-1(b) IC50 range
1,"Cc1ccc2c(N)c(C(=O)N[C@@H]3COc4cc(N5CC6CCC(C5)N6)cc(F)c4C3)sc2n1 (single isomer, unassigned) [Example 1-30]",+ (>2 μM)
2,"Cc1ccc2c(N)c(C(=O)N[C@H]3COc4cc(N5CCNCC5)c(OC(F)(F)F)cc4C3)sc2n1 (single isomer, unassigned) [Example 1-31]",+ (>2 μM)
3,"Cc1ccc2c(N)c(C(=O)N[C@@H]3COc4cc(N5CCNCC5)c(OC(F)(F)F)cc4C3)sc2n1 (single isomer, unassigned) [Example 1-32]",++ (0.2-2 μM)
4,"Cc1nc2sc(C(=O)N[C@H]3COc4cc(N5CCNCC5)cc(F)c4C3)c(N)c2s1 (single isomer, unassigned) [Example 1-37]",+ (>2 μM)
5,"Cc1nc2sc(C(=O)N[C@@H]3COc4cc(N5CCNCC5)cc(F)c4C3)c(N)c2s1 (single isomer, unassigned) [Example 1-38]",++ (0.2-2 μM)
6,"Cc1nc2sc(C(=O)N[C@H]3COc4cc(N5CC6CCC(C5)N6)cc(F)c4C3)c(N)c2s1 (single isomer, unassigned) [Example 1-39]",++ (0.2-2 μM)
7,"Cc1nc2sc(C(=O)N[C@@H]3COc4cc(N5CC6CCC(C5)N6)cc(F)c4C3)c(N)c2s1 (single isomer, unassigned) [Example 1-40]",+ (>2 μM)
8,"Cc1ccc2c(N)c(C(=O)N[C@@H]3COc4cc(N5CC6CC(C5)N6)cc(F)c4C3)sc2n1 (single isomer, unassigned) [Example 1-41]",+++ (0.05-0.2 μM)
9,"Cc1ccc2c(N)c(C(=O)N[C@H]3COc4cc(N5CC6CC(C5)N6)cc(F)c4C3)sc2n1 (single isomer, unassigned) [Example 1-42]",+ (>2 μM)
10,"Cc1cnc2c(N)c(C(=O)N[C@H]3CCc4cc(N5CCNCC5)c(C)cc4C3)sc2n1 (single isomer, unassigned) [Example 2-34]",++ (0.2-2 μM)
11,"Cc1cnc2c(N)c(C(=O)N[C@@H]3CCc4cc(N5CCNCC5)c(C)cc4C3)sc2n1 (single isomer, unassigned) [Example 2-35]",+ (>2 μM)
12,"Cc1cnc2c(N)c(C(=O)N[C@H]3CCc4c(ccc(N5CCNCC5)c4C)C3)sc2n1 (single isomer, unassigned) [Example 2-36]",+ (>2 μM)
13,"Cc1cnc2c(N)c(C(=O)N[C@@H]3CCc4c(ccc(N5CCNCC5)c4C)C3)sc2n1 (single isomer, unassigned) [Example 2-37]",+++ (0.05-0.2 μM)
14,"Cc1ccc2c(N)c(C(=O)N[C@H]3COc4cc(N5CCC[C@@](N)(C(F)(F)F)C5)ccc4C3)sc2n1 (single isomer, unassigned) [Example 3-3]",++++ (0.001-0.05 μM)
15,"Cc1ccc2c(N)c(C(=O)N[C@H]3COc4cc(N5CCC[C@](N)(C(F)(F)F)C5)ccc4C3)sc2n1 (single isomer, unassigned) [Example 3-4]",+++ (0.05-0.2 μM)
16,"Cc1nc2sc(C(=O)N[C@H]3COc4cc(N5CC6CCC(C5)N6)ccc4C3)c(N)c2s1 [Example 1-23, N-((3R)-7-(3,8-diazabicyclo[3.2.1]octan-3-yl)chroman-3-yl)-6-amino-2-methylthieno[2,3-d]thiazole-5-carboxamide]",++ (0.2-2 μM)
17,"Cc1nc2sc(C(=O)N[C@@H]3COc4cc(N5CC6CCC(C5)N6)ccc4C3)c(N)c2s1 [Example 1-24, N-((3S)-7-(3,8-diazabicyclo[3.2.1]octan-3-yl)chroman-3-yl)-6-amino-2-methylthieno[2,3-d]thiazole-5-carboxamide]",+ (>2 μM)
18,"Cc1nc2sc(C(=O)N[C@H]3COc4cc(N5CCNCC5)ccc4C3)c(N)c2s1 [Example 1-25, (R)-6-amino-2-methyl-N-(7-(piperazin-1-yl)chroman-3-yl)thieno[2,3-d]thiazole-5-carboxamide]",++ (0.2-2 μM)
19,"Cc1nc2sc(C(=O)N[C@@H]3COc4cc(N5CCNCC5)ccc4C3)c(N)c2s1 [Example 1-26, (S)-6-amino-2-methyl-N-(7-(piperazin-1-yl)chroman-3-yl)thieno[2,3-d]thiazole-5-carboxamide]",+ (>2 μM)
